Source: publication PMC7766697, “Toxicological Screening of Four Bioactive Citroflavonoids: In Vitro, In Vivo, and In Silico Approaches” (Molecules, 2020)
Where two headings read alike, the source gives them in different places.

Legend:
MDCK cells = test: MTT-based cytotoxicity assay in MDCK cells; assay type: cell-based, Canine; conditions: 48 h, 125 to 750 µg/mL (QRT effect at 250 and 500 µg/mL)
Description: (§1) VERO and MDCK cell lines were acquired from American Type Culture Collection (ATCC, Manassas, VA, USA). […] In vitro cytotoxicity assay was performed on Madin-Darby Canine Kidney Epithelial Cells (MDCK) and green Monkey Kidney Cells (VERO) by MTT-based assay. Briefly, cells were seeded in 96-well plates at a density of 2.5 × 10^3 cells/well. […] The absorbance was measured after 45 min using a microplate reader (Multiskan Asent®) at a wavelength of 550 nm. The criteria for categorizing cytotoxicity against MDCK and VERO cells are based on the U.S. National Cancer Institute (NCI). The criteria comprise as follow: […] All results were expressed as mean ± standard error. The results from the in vivo and in vitro experiments were analyzed using software Origin® 8.0. […] The IC50 (half inhibitory concentration) values were calculated in Origin software®, (Northampton, MA, USA) and one-way ANOVA analysis was compared with cisplatin as the control.

Sprague Dawley rats = system: Sprague Dawley rats; parameters: method as in PMID 30991075; conditions: early report; cited from earlier work
Wistar rats [1] = assay type: in vivo; conditions: rats, after 14 days
Description: (§2) Rats used for this experiment were fasted for 8 h and were organized into two groups of three rats for each dose and each flavonoid. Likewise, the control group received isotonic 0.9% sodium chloride solution (dose: 5 mL/kg). All rats were closely observed for toxic symptoms and behavioral changes (sedation, hyperactivity, writhing, pruritus, feeding and drinking habits, general morphological changes, and bite legs) for 30 min and periodically 24 h post-administration. Animals were observed daily (14 days) and mortality rate recorded. A LD50 was estimated according to criteria of OECD guide 423.
The rats’ body weight in each group was determined and recorded before the treatment initiation and after 14 days. Changes in the body weight at the end of the 14 days were calculated. Once observation time was completed and to detect any adverse effect, blood samples were collected by cardiac puncture after the previous fasting of 8 h. For this purpose, rats were anesthetized by intraperitoneally 50 mg/kg sodium pentobarbital. The liver was carefully extracted, rinsed in normal saline, drained on blotting paper, and carefully examined for tissue lesions. In addition, organ weight was determined.
Rat blood samples were analyzed by a hematology auto-analyzer system (Sysmex XS-1000i®, SYSMEX®, Oak Ridge, TN, USA). The parameters quantified on this stage were: blood count-packed cell volume (PCV), red blood cell (RBC) count, hemoglobin (Hb), platelet count, white blood cell (WBC) count, mean cell hemoglobin concentration (MCHC), mean red cell volume (MCV), mean cell hemoglobin (MCH), prothrombin time (PT), and activated partial thromboplastin time (aPTT).

Sprague-Dawley rats = system: Sprague-Dawley rats; parameters: method as in PMID 28662177; conditions: sub-chronic oral, 13 weeks, cited from earlier work
Wistar rats [2] = test: Acute oral toxicity, OECD Test No. 423 (mortality, signs, LD50, body weight); assay type: in vivo; conditions: oral 300 mg/kg, days 7 and 10
Description: Female Wistar rats (250 g b.w.) were used. These animals were obtained from Bioterium from División de Ciencias de la Salud at the Universidad de Quintana Roo. They were maintained under standard environmental conditions (22 ± 3 °C, 12 h/12 h light/dark cycle), and free access to standard rodent diet and water ad libitum. All animal procedures were conducted under our Federal Regulations for Animal Experimentation and Care and were approved by the Institutional Animal Care and Use Committee of the “Universidad Juárez Autónoma de Tabasco” university (Code:2017-001, Approved: October 2017). Rats were acclimatized for 1 week before the start of experimental procedures.
The half lethal dose (LD50) was estimated using the fixed-dose method described in OECD Guidelines for the Testing of Chemicals (Test No. 423: Acute Oral Toxicity-Class Method; OECD, 2001). […] This method allowed a step-by-step assay according to the chosen dose to begin the experiment. Subsequently, depending on the presence or absence of mortality, the decision to continue within the next step is taken, so fewer experimental animals should be used.
as §2
The rats’ body weight in each group was determined and recorded before the treatment initiation and after 14 days. Changes in the body weight at the end of the 14 days were calculated. Once observation time was completed and to detect any adverse effect, blood samples were collected by cardiac puncture after the previous fasting of 8 h. […] In addition, organ weight was determined.

VERO cells = test: MTT-based cytotoxicity assay in VERO cells; assay type: cell-based, green Monkey; conditions: 48 h, 125 to 750 µg/mL (QRT effect at 250–750 µg/mL)
Description: as §1

Wistar rats [3] = conditions: rats; for ALB (albumin) / ALB/GL Ratio / ALT / AST / DB (direct bilirubin) / GL (globulin) / GLU (glucose) / IB (indirect bilirubin) / TB (total bilirubin) / TP (total protein): after 14 days, plasma

For COc1ccc([C@@H]2CC(=O)c3c(O)cc(O[C@@H]4O[C@H](CO[C@@H]5O[C@@H](C)[C@H](O)[C@@H](O)[C@H]5O)[C@@H](O)[C@H](O)[C@H]4O)cc3O2)cc1O [HESP, hesperidin], the “percentage viability / growth of cells” value (MDCK cells) is listed as “did not change the percentage of growth”, the “acute oral LD50” value (Sprague Dawley rats) is listed as 4837.5 mg/kg and the APTT (Wistar rats [1]; oral 300 mg/kg) is listed as 28.53 ± 4.31 s. The Basophils (Wistar rats [1]; oral 300 mg/kg) was 2.13±1.74 103/µL, the Eosinophils (Wistar rats [1]; oral 300 mg/kg) was 3.60±0.76 103/µL and the Erythrocytes (Wistar rats [1]; oral 300 mg/kg) was 7.90±0.30 106/µL. For the same compound, the Hb (Wistar rats [1]; oral 300 mg/kg) was 14.20 ± 0.37 g/dL, the Hto (Wistar rats [1]; oral 300 mg/kg) was 44.96±0.91% and the Leukocytes (Wistar rats [1]; oral 300 mg/kg) was 4.50±0.89 103/µL. For the same compound, the Lymphocytes (Wistar rats [1]; oral 300 mg/kg) was 72.27±4.36 103/µL, the MCH (Wistar rats [1]; oral 300 mg/kg) was 18.00 ± 0.24 pg and the MCHC (Wistar rats [1]; oral 300 mg/kg) was 31.56 ± 0.64 g/dL. The MCV (Wistar rats [1]; oral 300 mg/kg) was 57.06 ± 1.87 fL, the Monocytes (Wistar rats [1]; oral 300 mg/kg) was 7.07±1.50 103/µL and the PT (Wistar rats [1]; oral 300 mg/kg) was 17.86 ± 0.40 s. The Platelets (Wistar rats [1]; oral 300 mg/kg) was 720.00±125.23 105/µL, the RBCDW (Wistar rats [1]; oral 300 mg/kg) was 17.00±0.61% and the APTT (Wistar rats [1]; oral 2000 mg/kg) was 32.53 ± 3.93 s. The Basophils (Wistar rats [1]; oral 2000 mg/kg) was 0.00±0.00 103/µL, the Eosinophils (Wistar rats [1]; oral 2000 mg/kg) was 3.67±0.54 103/µL and the Erythrocytes (Wistar rats [1]; oral 2000 mg/kg) was 8.04±0.22 106/µL. The Hb (Wistar rats [1]; oral 2000 mg/kg) was 14.20 ± 0.36 g/dL, the Hto (Wistar rats [1]; oral 2000 mg/kg) was 43.26±0.89% and the Leukocytes (Wistar rats [1]; oral 2000 mg/kg) was 6.68±0.72 103/µL. For the same compound, the Lymphocytes (Wistar rats [1]; oral 2000 mg/kg) was 77.33±3.24 103/µL, the MCH (Wistar rats [1]; oral 2000 mg/kg) was 17.70 ± 0.24 pg and the MCHC (Wistar rats [1]; oral 2000 mg/kg) was 32.83 ± 0.35 g/dL. The MCV (Wistar rats [1]; oral 2000 mg/kg) was 53.86 ± 0.37 fL, the Monocytes (Wistar rats [1]; oral 2000 mg/kg) was 7.13±1.15 103/µL and the PT (Wistar rats [1]; oral 2000 mg/kg) was 17.73 ± 0.50 s. For the same compound, the Platelets (Wistar rats [1]; oral 2000 mg/kg) was 628.66±28.31 105/µL, the RBCDW (Wistar rats [1]; oral 2000 mg/kg) was 17.83±1.50% and the weight gain (Sprague-Dawley rats; 1000 mg/kg) was “did at 1000 mg/kg”. For the same compound, the weight gain (Sprague-Dawley rats; 250 and 500 mg/kg) was “did not modify weight gain”, the “weight gain vs control” value (Wistar rats [2]) was “considerable weight gain differences” and the “percentage viability / growth of cells” value (VERO cells) was “did not change the percentage of growth”. For the same compound, the “ALB (albumin)” value (Wistar rats [3]; oral 300 mg/kg) was 4.15 ± 0.20 g/dL, the “ALB/GL Ratio” value (Wistar rats [3]; oral 300 mg/kg) was 2.36 ± 0.101 and the ALT (Wistar rats [3]; oral 300 mg/kg) was 33.78 ± 1.30 IU/L. For the same compound, the AST (Wistar rats [3]; oral 300 mg/kg) was 126.00 ± 13.18 IU/L, the “DB (direct bilirubin)” value (Wistar rats [3]; oral 300 mg/kg) was 0.020 ± 0.005 mg/dL and the “GL (globulin)” value (Wistar rats [3]; oral 300 mg/kg) was 1.76 ± 0.069 g/dL. For the same compound, the “GLU (glucose)” value (Wistar rats [3]; oral 300 mg/kg) was 155.33 ± 18.71 mg/dL, the “IB (indirect bilirubin)” value (Wistar rats [3]; oral 300 mg/kg) was 0.029 ± 0.003 mg/dL and the “TB (total bilirubin)” value (Wistar rats [3]; oral 300 mg/kg) was 0.051 ± 0.002 mg/dL. The “TP (total protein)” value (Wistar rats [3]; oral 300 mg/kg) was 5.91 ± 0.25 g/dL, the “ALB (albumin)” value (Wistar rats [3]; oral 2000 mg/kg) was 4.20 ± 0.22 g/dL and the “ALB/GL Ratio” value (Wistar rats [3]; oral 2000 mg/kg) was 2.38 ± 0.270. For the same compound, the ALT (Wistar rats [3]; oral 2000 mg/kg) was 41.19 ± 2.83 IU/L, the AST (Wistar rats [3]; oral 2000 mg/kg) was 226.65 ± 44.80 IU/L and the “DB (direct bilirubin)” value (Wistar rats [3]; oral 2000 mg/kg) was 0.018 ± 0.005 mg/dL. For the same compound, the “GL (globulin)” value (Wistar rats [3]; oral 2000 mg/kg) was 1.80 ± 0.108 g/dL, the “GLU (glucose)” value (Wistar rats [3]; oral 2000 mg/kg) was 192.06 ± 12.73 mg/dL and the “IB (indirect bilirubin)” value (Wistar rats [3]; oral 2000 mg/kg) was 0.046 ± 0.010 mg/dL. The “TB (total bilirubin)” value (Wistar rats [3]; oral 2000 mg/kg) was 0.060 ± 0.06 mg/dL, the “TP (total protein)” value (Wistar rats [3]; oral 2000 mg/kg) was 5.99 ± 0.11 g/dL and the “glucose values vs control” value (Wistar rats [3]; oral, doses tested, more evident at NAR 300 and 2000 mg/kg and NARGE 300 mg/kg) was “slightly amended glucose values”.
